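96-well plates; 48 h exposure; 5 concentrations. Endpoints by linear interpolation between flanking doses. Not reached: highest tested concentration assigned. At the TGI there is no net growth.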
Tests used:
Assay in all cases: growth of human tumour cells (NCI), 48 h
786-0 renal = system: 786-0 renal
A498 renal = system: A498 renal
A549 NSCLC = system: A549 NSCLC
ACHN renal = system: ACHN renal
CAKI-1 renal = system: CAKI-1 renal
CCRF-CEM leukemia = system: CCRF-CEM leukemia
COLO 205 colon = system: COLO 205 colon
DLD-1 colon = system: DLD-1 colon
DMS 114 small cell lung = system: DMS 114 small cell lung
DMS 273 small cell lung = system: DMS 273 small cell lung
EKVX NSCLC = system: EKVX NSCLC
HCC-2998 colon = system: HCC-2998 colon
HCT-116 colon = system: HCT-116 colon
HCT-15 colon = system: HCT-15 colon
HL-60(TB) leukemia = system: HL-60(TB) leukemia
HOP-18 NSCLC = system: HOP-18 NSCLC
HOP-62 NSCLC = system: HOP-62 NSCLC
HOP-92 NSCLC = system: HOP-92 NSCLC
HT29 colon = system: HT29 colon
IGROV1 ovarian = system: IGROV1 ovarian
K-562 leukemia = system: K-562 leukemia
KM12 colon = system: KM12 colon
KM20L2 colon = system: KM20L2 colon
LOX IMVI melanoma = system: LOX IMVI melanoma
LXFL 529 NSCLC = system: LXFL 529 NSCLC
M14 melanoma = system: M14 melanoma
M19-MEL melanoma = system: M19-MEL melanoma
MALME-3M melanoma = system: MALME-3M melanoma
MOLT-4 leukemia = system: MOLT-4 leukemia
NCI-H226 lung = system: NCI-H226 lung
NCI-H23 lung = system: NCI-H23 lung
NCI-H460 lung = system: NCI-H460 lung
OVCAR-3 ovarian = system: OVCAR-3 ovarian
OVCAR-4 ovarian = system: OVCAR-4 ovarian
OVCAR-5 ovarian = system: OVCAR-5 ovarian
OVCAR-8 ovarian = system: OVCAR-8 ovarian
RPMI-8226 leukemia = system: RPMI-8226 leukemia
RXF 393 renal = system: RXF 393 renal
RXF-631 renal = system: RXF-631 renal
SF-268 CNS = system: SF-268 CNS
SF-295 CNS = system: SF-295 CNS
SF-539 CNS = system: SF-539 CNS
SK-MEL-2 melanoma = system: SK-MEL-2 melanoma
SK-MEL-28 melanoma = system: SK-MEL-28 melanoma
SK-MEL-5 melanoma = system: SK-MEL-5 melanoma
SK-OV-3 ovarian = system: SK-OV-3 ovarian
SN12C renal = system: SN12C renal
SNB-19 CNS = system: SNB-19 CNS
SNB-75 CNS = system: SNB-75 CNS
SNB-78 CNS = system: SNB-78 CNS
SR leukemia = system: SR leukemia
SW-620 colon = system: SW-620 colon
TK-10 renal = system: TK-10 renal
U251 CNS = system: U251 CNS
UACC-257 melanoma = system: UACC-257 melanoma
UACC-62 melanoma = system: UACC-62 melanoma
UO-31 renal = system: UO-31 renal
XF 498 CNS = system: XF 498 CNS

Work on `COc1ccc2oc3cccc(NCCN(C)C)c3c(=O)c2c1` yielded a TGI (786-0 renal) of 23.5 µM, a TGI (A498 renal) of 33.8 µM and a TGI (A549 NSCLC) of 28.2 µM. The TGI (ACHN renal) was 23.2 µM, the TGI (CAKI-1 renal) was 18.2 µM and the TGI (CCRF-CEM leukemia) was 32.1 µM. It also gave a TGI (COLO 205 colon) of 19.1 µM, a TGI (DLD-1 colon) of 27.5 µM and a TGI (DMS 114 small cell lung) of 27 µM. For the same compound, the TGI (DMS 273 small cell lung) was 25.3 µM, the TGI (EKVX NSCLC) was 29.2 µM and the TGI (HCC-2998 colon) was 21.9 µM. The TGI (HCT-116 colon) was 19.8 µM, the TGI (HCT-15 colon) was 27.1 µM and the TGI (HL-60(TB) leukemia) was 27.6 µM. The TGI (HOP-18 NSCLC) was 24 µM, the TGI (HOP-62 NSCLC) was 29.2 µM and the TGI (HOP-92 NSCLC) was 27.9 µM. For the same compound, the TGI (HT29 colon) was 20.3 µM, the TGI (IGROV1 ovarian) was 31.2 µM and the TGI (K-562 leukemia) was 25.3 µM. It also gave a TGI (KM12 colon) of 26.7 µM, a TGI (KM20L2 colon) of 22 µM and a TGI (LOX IMVI melanoma) of 22.7 µM. It also gave a TGI (LXFL 529 NSCLC) of 26 µM, a TGI (M14 melanoma) of 29.4 µM and a TGI (M19-MEL melanoma) of 29.9 µM. For the same compound, the TGI (MALME-3M melanoma) was 29.2 µM, the TGI (MOLT-4 leukemia) was 12.7 µM and the TGI (NCI-H226 lung) was 32 µM. It also gave a TGI (NCI-H23 lung) of 32.7 µM, a TGI (NCI-H460 lung) of 21.2 µM and a TGI (OVCAR-3 ovarian) of 28.5 µM. For the same compound, the TGI (OVCAR-4 ovarian) was 27.7 µM, the TGI (OVCAR-5 ovarian) was 24.9 µM and the TGI (OVCAR-8 ovarian) was 23.7 µM. The TGI (RPMI-8226 leukemia) was 33 µM, the TGI (RXF 393 renal) was 26.4 µM and the TGI (RXF-631 renal) was 32.4 µM. It also gave a TGI (SF-268 CNS) of 28.3 µM, a TGI (SF-295 CNS) of 29.9 µM and a TGI (SF-539 CNS) of 28.1 µM. It also gave a TGI (SK-MEL-2 melanoma) of 30.2 µM, a TGI (SK-MEL-28 melanoma) of 32.9 µM and a TGI (SK-MEL-5 melanoma) of 30.9 µM. The TGI (SK-OV-3 ovarian) was 28.7 µM, the TGI (SN12C renal) was 23.3 µM and the TGI (SNB-19 CNS) was 28.9 µM. The TGI (SNB-75 CNS) was 31 µM, the TGI (SNB-78 CNS) was 36 µM and the TGI (SR leukemia) was 27.1 µM. It also gave a TGI (SW-620 colon) of 15.6 µM, a TGI (TK-10 renal) of 28.2 µM and a TGI (U251 CNS) of 25.3 µM. For the same compound, the TGI (UACC-257 melanoma) was 30.8 µM, the TGI (UACC-62 melanoma) was 26.6 µM and the TGI (UO-31 renal) was 21.4 µM. For the same compound, the TGI (XF 498 CNS) was 28 µM.
